Data as given in ChEMBL document CHEMBL1177848, “Synthesis of novel 6,6a,7,8-tetrahydro-5H-naphtho[1,2-e]pyrimido[4,5-b][1,4]diazepines under microwave irradiation as potential anti-tumor agents” (2010).
Calls of active or inactive are those of the source. The calls are words filed in the database; no cut-off is given here.

What was measured:
OVCAR-8 = experiment: Growth inhibition of human OVCAR8 cells after 48 hrs by sulforhodamine B assay; type: functional; details: OVCAR-8, 48 h
SF-539 = experiment: Growth inhibition of human SF539 cells after 48 hrs by sulforhodamine B assay; type: functional; details: SF-539, 48 h; for CC50: read-out: LC50 (the source's name)
HCC 2998 = experiment: Growth inhibition of human HCC2998 cells after 48 hrs by sulforhodamine B assay; type: functional; details: HCC 2998, 48 h
786-0 [1] = experiment: Growth inhibition of human 786-0 cells after 48 hrs by sulforhodamine B assay; type: functional; details: 786-0, 48 h
NCI-H322M = experiment: Growth inhibition of human […] cells after 48 hrs by sulforhodamine B assay; type: functional
HOP-62 = experiment: Growth inhibition of human HOP62 cells after 48 hrs by sulforhodamine B assay; type: functional; details: HOP-62, 48 h
NCI-H23 = experiment: Growth inhibition of human NCI-H23 cells after 48 hrs by sulforhodamine B assay; type: functional; details: NCI-H23, 48 h
HOP-92 = experiment: Growth inhibition of human HOP92 cells at 1 uM after 48 hrs by sulforhodamine B assay; type: functional, cell-based
786-0 [2] = experiment: Growth inhibition of human 786-0 cells at 1 uM after 48 hrs by sulforhodamine B assay; type: functional, cell-based
SK-MEL-2 = experiment: Growth inhibition of human SK-MEL-2 cells after 48 hrs by sulforhodamine B assay; type: functional; details: SK-MEL-2, 48 h
DU-145 = experiment: Growth inhibition of human DU145 cells after 48 hrs by sulforhodamine B assay; type: functional; details: DU-145, 48 h
SF-268 = experiment: Growth inhibition of human SF268 cells after 48 hrs by sulforhodamine B assay; type: functional; details: SF-268, 48 h
Hs-578T = experiment: Growth inhibition of human Hs 578T cells after 48 hrs by sulforhodamine B assay; type: functional
K562 = experiment: Growth inhibition of human K562 cells after 48 hrs by sulforhodamine B assay; type: functional; details: K562, 48 h
[3] = Growth inhibition of human SF530 cells after 48 hrs by sulforhodamine B assay; type: functional; details: SF530, 48 h
HL-60 = experiment: Growth inhibition of human HL-60(TB) cells after 48 hrs by sulforhodamine B assay; type: functional; details: HL-60, 48 h
MOLT-4 = experiment: Growth inhibition of human MOLT4 cells after 48 hrs by sulforhodamine B assay; type: functional; details: MOLT-4, 48 h
SK-MEL-28 = experiment: Growth inhibition of human SK-MEL-28 cells after 48 hrs by sulforhodamine B assay; type: functional; details: SK-MEL-28, 48 h
A549 = experiment: Growth inhibition of human A549 cells after 48 hrs by sulforhodamine B assay; type: functional; details: A549, 48 h
SNB-75 = experiment: Growth inhibition of human SNB75 cells after 48 hrs by sulforhodamine B assay; type: functional; details: SNB-75, 48 h
CCRF-CEM = experiment: Growth inhibition of human CCRF-CEM cells after 48 hrs by sulforhodamine B assay; type: functional
M14 = experiment: Growth inhibition of human M14 cells after 48 hrs by sulforhodamine B assay; type: functional; details: M14, 48 h
[4] = read-out: LC50 (the source's name)

Work on `Nc1nc(N)c2c(n1)NC(c1ccc(F)cc1)C1CCc3ccccc3C1=N2` (centres undefined) yielded a GI50 (OVCAR-8) of 8.07 µM, an LC50 (concentration killing 50% of cells) (OVCAR-8) of 80.7 µM and a GI50 (SF-539) of 1.71 µM. It also gave a CC50 (SF-539) of 32 µM, a GI50 (HCC 2998) of 2.44 µM and an LC50 (concentration killing 50% of cells) (HCC 2998) of 24.3 µM. The GI50 (786-0 [1]) was 6.9 µM, the LC50 (50% lethal concentration) (786-0 [1]) was 47.8 µM and the GI50 (NCI-H322M) was 9.63 µM. For the same molecule, the CC50 (NCI-H322M; [4]) was 48 µM, the GI50 (HOP-62) was 6 µM and the LC50 (concentration killing 50% of cells) (HOP-62) was 51.6 µM. For the same molecule, the GI50 (NCI-H23) was 4.06 µM, the LC50 (NCI-H23) was 46.4 µM and the “growth inhibition (GI)” value (HOP-92) was “inactive”. For the same molecule, the “growth inhibition (GI)” value (786-0 [2]) was “inactive”, the GI50 (SK-MEL-2) was 5.73 µM and the LC50 (SK-MEL-2) was 50.2 µM. It also gave a GI50 (DU-145) of 7.45 µM and an LC50 (50% lethal concentration) (DU-145) of 44.5 µM.
Work on `Nc1nc(N)c2c(n1)NC(c1ccccc1)C1CCc3ccccc3C1=N2` (centres undefined) yielded a GI50 (OVCAR-8) of 4.71 µM, an LC50 (concentration killing 50% of cells) (OVCAR-8) greater than 100 µM and a GI50 (SF-268) of 6.96 µM. It also gave a CC50 (SF-268; [4]) of 45.7 µM, a GI50 (Hs-578T) of 5.85 µM and a CC50 (Hs-578T; [4]) greater than 100 µM. The GI50 (HCC 2998) was 3.82 µM, the LC50 (concentration killing 50% of cells) (HCC 2998) was 41.2 µM and the GI50 (K562) was 3.42 µM. The CC50 (K562; [4]) was greater than 100 µM, the GI50 [3] was 5.81 µM and the CC50 [3, 4] was 43.7 µM. It also gave a GI50 (HL-60) of 2.37 µM, a CC50 (HL-60; [4]) greater than 100 µM and a GI50 (MOLT-4) of 2.7 µM. The CC50 (MOLT-4; [4]) was greater than 100 µM, the GI50 (786-0 [1]) was 5.99 µM and the LC50 (50% lethal concentration) (786-0 [1]) was 45.7 µM. The GI50 (SK-MEL-28) was 7.72 µM, the CC50 (SK-MEL-28; [4]) was 45.1 µM and the GI50 (HOP-62) was 7.87 µM. It also gave an LC50 (concentration killing 50% of cells) (HOP-62) of 49.7 µM, a GI50 (NCI-H23) of 4.56 µM and an LC50 (NCI-H23) of 57.4 µM. For the same molecule, the “growth inhibition (GI)” value (HOP-92) was “inactive”, the “growth inhibition (GI)” value (786-0 [2]) was “inactive” and the GI50 (SK-MEL-2) was 3.48 µM. For the same molecule, the LC50 (SK-MEL-2) was 43.6 µM, the GI50 (DU-145) was 4.38 µM and the LC50 (50% lethal concentration) (DU-145) was 42.1 µM. The GI50 (A549) was 7.11 µM, the CC50 (A549; [4]) was 82.2 µM and the GI50 (SNB-75) was 7.95 µM. For the same molecule, the CC50 (SNB-75; [4]) was 45.6 µM, the GI50 (CCRF-CEM) was 4.47 µM and the CC50 (CCRF-CEM; [4]) was greater than 100 µM. The GI50 (M14) was 4.88 µM and the CC50 (M14; [4]) was 44.2 µM.
Molecule `Nc1nc(N)c2c(n1)NC(c1ccc(Cl)cc1)C1CCc3ccccc3C1=N2` (centres undefined) has a GI50 (SF-539) of 6.17 µM, a CC50 (SF-539) of 44.3 µM and a GI50 (NCI-H23) of 4.88 µM. For the same molecule, the LC50 (NCI-H23) was 44.7 µM, the “growth inhibition (GI)” value (HOP-92) was “inactive” and the “growth inhibition (GI)” value (786-0 [2]) was “inactive”.
